Experimental findings from US20100298325A1, “PYRIDINE DERIVATIVES FOR THE TREATMENT OF AMYLOID-RELATED DISEASES” (SENEXIS LIMITED, priority 2007, published 2010) are described below.

Read-outs that look alike come from different tables or passages of the source.

In general, IC50 refers to the concentration needed to halve the response being measured.

One assay concerns SH SY5Y cells. Kind of assay: Cell viability assay for amyloid toxicity using MTT reduction. The class given is cell-based. The following applies: 10 μM Aβ(1-42), 24 h incubation, MTT reduction as measure of cell viability, read-out: IC50 protecting SH SY5Y cells from a toxic insult of 10 μM Aβ(1-42). The method, then:
Aβ(1-42) was prepared for amyloid aggregation and toxicity assays by dissolving Aβ(1-42) HCl salt in hexafluoroisopropanol (HFIP), with brief sonication and vortexing. This solution of the Aβ(1-42) peptide in HFIP was stored at 4° C. @ 2 mM. When required, an aliquot of this stock solution was freeze-dried and dissolved in DMSO to 200 times the required final assay concentration (e.g. 2 mM for a final assay concentration of 10 μM).
A 20 mM stock solution of each test compound was prepared in DMSO, and aliquots of these solutions were used to prepare further stock solutions of each test compound in DMSO, ranging in concentration from 3 μM up to 10 mM. These stock solutions were prepared for use as and when required and stored at −20° C. (maximum of 3 freeze-thaw cycles). The 20 mM parent stock solutions were stored frozen at −20° C.
The activity of compounds in protecting SH SY5Y cells from a toxic insult of 10 μM Aβ(1-42) was assessed by using inhibition of MIT reduction as a measure of cell viability. An aliquot (3 μl) of test compound [various concentrations] in DMSO is added to 294 μl of Opti-Mem (containing 2% FBS, 1% Pen/Strep, 1% L-Gln) {daughter plate}. The well is mixed thoroughly. Then an aliquot (3 μl) of Aβ(1-42) [2 mM] is added to the daughter plate wells and again mixed thoroughly. 50 μl is then aspirated and dispensed into wells containing 50 μl media+SH SY5Ycells (cells are also plated in Opti-Mem, at ˜30,000 cells/well/50 μl). Final concentrations of compound on cells range from [50 μM] to [˜15 nM] with a final concentration of Aβ(1-42) of [10 μM].
Cell plates are incubated for 24 h and then the MTT assay (Shearman, 1999). is performed. Briefly, 15 μl of MTT (3-(4,5-dimethylthiazol-2-yl)-2,5-diphenyl-tetrazolium bromide) dye (from Promega) added to each well and the plates incubated in 5% CO2 at 37° C. for 4 hours. 100 μl Stop/solubilsation solution (from Promega) was added to each well and the plates were left overnight in humidified box at room temperature. The plate was shaken and the absorbance was recorded at both 570 nm and 650 nm. ΔA values were calculated by subtracting absorbance at 650 nm from absorbance at 570 nm, to reduce non-specific background absorbance. ΔA values from equivalent experiments were averaged and % cell viability was determined as follows:
Live cell controls: 1% DMSO in Opti-Mem
Dead cell controls: 0.1% Triton X-100 added to cells
Activity of Compounds in Protecting SH SY5Y Cells from a Toxic Insult of 10 μM Aβ(1-42) Using Inhibition of MTT Reduction as a Measure of Cell Viability

Another assay deals with T1, Aβ(1-42) (Homo sapiens, UniProt P05067).
T1 construct: dissolving Aβ(1-42) HCl salt in hexafluoroisopropanol (HFIP)
T1 sequence (P05067 672-713 limits assumed): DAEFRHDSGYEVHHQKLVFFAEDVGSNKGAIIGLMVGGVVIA
Kind of assay: Thioflavin-T fluorimetric assay of Aβ(1-42) aggregation. The class given is biochemical. The conditions noted are these: 10 μM Aβ(1-42); thioflavin-T fluorescence; read-out: IC50 inhibiting 10 μM Aβ(1-42) aggregation. The method, then:
Aβ(1-42) was prepared for amyloid aggregation and toxicity assays by dissolving Aβ(1-42) HCl salt in hexafluoroisopropanol (HFIP), with brief sonication and vortexing. This solution of the Aβ(1-42) peptide in HFIP was stored at 4° C. @ 2 mM. When required, an aliquot of this stock solution was freeze-dried and dissolved in DMSO to 200 times the required final assay concentration (e.g. 2 mM for a final assay concentration of 10 μM). A 20 mM stock solution of each test compound was prepared in DMSO, and aliquots of these solutions were used to prepare further stock solutions of each test compound in DMSO, ranging in concentration from 3 μM up to 10 mM. These stock solutions were prepared for use as and when required and stored at −20° C. (maximum of 3 freeze-thaw cycles). The 20 mM parent stock solutions were stored frozen at −20° C. The daughter plate is sealed with silver seal and incubated at 37° C. for 24 and 48 hours for the Thioflavin T assay (LeVine and Scholten 1999). The activity of compounds in inhibiting 10 μM Aβ(1-42) aggregation was assessed by using a thioflavin-T fluorimetric assay. At each timepoint, a 50 or 100 μl aliquot is taken from each well of the daughter plate and dispensed into a black 96 well plate. Equal volume (50 or 100 μl) Thioflavin T [40 μM] (in Glycine buffer [50 mM]-NaOH pH 8.5) is added to each well. The plate was shaken and fluorescence was recorded using the top reader setting (10×1 msec), using excitation and emission filters of 440 (±15) and 485 (±10) nm, respectively. Fluorescence readings from equivalent experiments were averaged and % amyloid formation was determined as follows: Activity of Compounds in Inhibiting 10 μM Aβ(1-42) Aggregation Using Thioflavin-T Fluorimetric Assay

On to `Oc1cccc(Nc2ccc(Oc3ccc(F)cc3)cn2)c1` [Example 1, 3-[5-(4-Fluorophenoxy)pyridin-2-ylamino]-phenol], for which the half-inhibitory concentration (IC50) stood at 16 µM in the assay with SH SY5Y cells (Homo sapiens, SH-SY5Y) and 5 µM on Aβ(1-42).
Turning to `COc1cc(Nc2ccc(Oc3cccc(N(C)C)c3)cn2)ccc1F` [Example 17, [5-(3-Dimethylaminophenoxy)-pyridin-2-yl]-(4-fluoro-3-methoxy-phenyl)amine], the IC50 came to 16 µM in the assay with SH SY5Y cells (Homo sapiens, SH-SY5Y) and 9 µM on Aβ(1-42).
`COc1cc(N(C)c2ccc(Oc3cccc(N(C)C)c3)cn2)ccc1F` [Example 26, [5-(3-Dimethylaminophenoxy)-pyridin-2-yl]-(4-fluoro-3-methoxy-phenyl)methylamine]: the IC50 with SH SY5Y cells (Homo sapiens, SH-SY5Y) was 22 µM.
As for `COc1cc(Nc2ccc(Oc3cccc(N4CCOCC4)c3)cn2)ccc1F` [Example 27], the IC50 with SH SY5Y cells (Homo sapiens, SH-SY5Y) is 8 µM; on Aβ(1-42), 11 µM.
Consider `Oc1cccc(Nc2ccc(Oc3cccc(N4CCOCC4)c3)cn2)c1` [Example 31], for which the IC50 at Aβ(1-42) was 15 µM.
For `Oc1cccc(Nc2ccc(Nc3cccc(O)c3)nn2)c1` [RS-0406, reference compound], the concentration for half-maximal inhibition (IC50) with SH SY5Y cells is 40 µM.
